# In US20250325572A1, “TREATMENTS FOR PAIN” (Sevenless Therapeutics Limited, priority 2022, published 2025):
# What was measured:
# [1] = tested on: knee osteoarthritis pain model; details: rats, 10 mg/kg; cited from earlier work
# [2] = Analgesic effect of SOS1 inhibitor combined with Tanezumab; type: in vivo
# [3] = tested on: NGF stimulated pERK1/2 activation in PC-12 cells; experiment: Tanezumab / SOS1 inhibitor combination in the NGF stimulated pERK1/2 PC-12 assay; type: cell-based, rat
# Method: The combined inhibitory effect of a selective, small molecule SOS1 inhibitor and known antibody based NGF inhibitor, Anti-NGF was monitored via an HTRF readout measuring phosphorylation of ERK1/2 by NGF activation. All assays were performed in rat adrenal PC-12 cells (Merck) that had been serum-starved for a period of 24 hours in RPMI-1640 growth medium (Gibco) supplemented with 1% heat-inactivated horse serum (Merck), 0.5% heat-inactivated fetal bovine serum (FBS), 1% penicillin-streptomycin and 2 mM L-Glutamine unless specified otherwise. Reagents from the HTRF commercial kit (Cisbio) were prepared according to the manufacturer's instructions.
# PC-12 cells were isolated from routine cellular culture and plated at an appropriate cell density (typically 25,000 cells per well) in 384-well plates for 24 hours under serum-starved conditions. Working preparations of varying Anti-NGF (Abcam) concentrations and a fixed NGF concentration were prepared in serum-starved media and pre-incubated for 30 minutes (37° C./5% CO2). […] A 2-hour incubation at room temperature was performed prior to fluorescence signal being measured in a microplate reader (PHERAstar FSX, BMG Labtech).
# Percentage inhibition values were calculated per compound concentration by normalising the sample data to the high and low controls used within each plate (+/−250 ng/mL NGF respectively). […] Response data were then plotted against the molar logarithm for each SOS1 inhibitor compound concentration together with the determined fit results for display purposes. […] The mean percentage inhibition value calculated for both the top and bottom concentration of SOS1 inhibitor compound tested per Anti-NGF:NGF combination was extracted and compared in tabular form across the different Anti-NGF:NGF combinations tested.
# The ability of an NGF inhibitor Tanezumab in combination with a SOS1 inhibitor to treat pain was measured in the Inhibition of Nerve Growth Factor (NGF) stimulated phospho-Extracellular Regulated Kinase 1 and 2 (pERK1/2) activation in the PC-12 cell line assay.
substance,measurement,setting,value
Tanezumab: an example of an anti-NGF antibody,efficacy,[1],shows efficacy
same,analgesic effect,[2]; 0.3 mg/kg Tanezumab in combination with low doses of a SOS1 inhibitor,significant analgesic effect
same,increase in analgesia versus dose,"[2]; fixed dose SOS1 inhibitor, varied antibody dose",efficacy is dose related
same,efficacy,[3]; Tanezumab 50 nM in combination with SOS1 inhibitor 500 nM,~96%
same,efficacy,"[3]; Tanezumab alone, 50 nM",90%
same,efficacy,"[3]; tanezumab alone, 200 nM",100%
